Active and inactive are the calls of the source.
Key:
[1] = cytotoxicity in HEK-293T NF-kB-Luc cells, dose response, cytotoxicity control for B/T-cell NF-kB inhibitor project, cell-based, uHTS hits (AID 489019); assay type: functional;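 further: IC50 reflects cytotoxicity as loss of cell viability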
[2] = target: T1, Apoptotic protease-activating factor 1 (Homo sapiens, UniProt O14727); assay type: functional
T1 sequence (O14727 whole entry): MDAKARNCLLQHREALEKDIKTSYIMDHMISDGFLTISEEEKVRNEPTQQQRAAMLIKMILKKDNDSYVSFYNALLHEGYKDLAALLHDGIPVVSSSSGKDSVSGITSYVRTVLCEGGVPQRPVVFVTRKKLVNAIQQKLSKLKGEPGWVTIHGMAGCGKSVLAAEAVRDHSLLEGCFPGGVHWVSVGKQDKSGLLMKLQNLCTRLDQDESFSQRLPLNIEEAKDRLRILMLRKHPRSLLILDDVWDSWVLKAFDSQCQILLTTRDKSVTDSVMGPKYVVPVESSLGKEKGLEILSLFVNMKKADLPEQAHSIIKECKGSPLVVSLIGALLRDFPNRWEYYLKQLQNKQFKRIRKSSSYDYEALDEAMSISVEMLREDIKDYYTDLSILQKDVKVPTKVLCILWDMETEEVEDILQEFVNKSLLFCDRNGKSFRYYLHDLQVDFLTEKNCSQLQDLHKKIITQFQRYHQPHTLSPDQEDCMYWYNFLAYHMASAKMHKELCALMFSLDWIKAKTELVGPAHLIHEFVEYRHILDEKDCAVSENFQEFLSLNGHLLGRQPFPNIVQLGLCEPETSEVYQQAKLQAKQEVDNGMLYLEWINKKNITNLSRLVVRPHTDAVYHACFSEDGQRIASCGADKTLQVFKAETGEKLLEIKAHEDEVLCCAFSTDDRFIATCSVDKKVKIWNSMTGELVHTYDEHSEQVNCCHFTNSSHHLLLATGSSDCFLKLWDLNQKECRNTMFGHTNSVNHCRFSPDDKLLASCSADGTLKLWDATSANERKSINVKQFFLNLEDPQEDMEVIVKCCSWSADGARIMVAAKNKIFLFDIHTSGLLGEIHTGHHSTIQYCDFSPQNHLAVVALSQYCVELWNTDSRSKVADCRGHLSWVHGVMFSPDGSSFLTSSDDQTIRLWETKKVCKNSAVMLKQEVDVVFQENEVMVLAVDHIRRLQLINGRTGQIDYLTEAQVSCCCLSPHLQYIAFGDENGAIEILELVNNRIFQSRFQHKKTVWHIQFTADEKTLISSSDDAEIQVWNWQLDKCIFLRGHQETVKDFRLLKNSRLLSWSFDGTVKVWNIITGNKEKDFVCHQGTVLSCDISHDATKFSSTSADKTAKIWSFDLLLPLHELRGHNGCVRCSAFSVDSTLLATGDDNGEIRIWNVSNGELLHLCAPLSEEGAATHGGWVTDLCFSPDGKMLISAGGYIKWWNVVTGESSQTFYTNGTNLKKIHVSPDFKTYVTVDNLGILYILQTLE

[3] = inhibitors of firefly luciferase expression or activity, dose response, H4 neuroglioma cells, luminescence (AID 1990); assay type: functional, cell-based
[4] = microbe, parasite or virus in culture; assay type: functional; details: Mycobacterium tuberculosis
[5] = target: T2, Sphingosine 1-phosphate receptor 4 (Homo sapiens, UniProt O95977); assay: Fluorescence dose response cell-based high throughput screening assay for antagonists of the Sphingosine 1-Phosphate Receptor 4 (S1P4). [Related pubchem assays: 1524 (Confirmation in triplicates.), 1510 (Primary screen.)]; assay type: functional
T2 sequence (O95977 whole entry): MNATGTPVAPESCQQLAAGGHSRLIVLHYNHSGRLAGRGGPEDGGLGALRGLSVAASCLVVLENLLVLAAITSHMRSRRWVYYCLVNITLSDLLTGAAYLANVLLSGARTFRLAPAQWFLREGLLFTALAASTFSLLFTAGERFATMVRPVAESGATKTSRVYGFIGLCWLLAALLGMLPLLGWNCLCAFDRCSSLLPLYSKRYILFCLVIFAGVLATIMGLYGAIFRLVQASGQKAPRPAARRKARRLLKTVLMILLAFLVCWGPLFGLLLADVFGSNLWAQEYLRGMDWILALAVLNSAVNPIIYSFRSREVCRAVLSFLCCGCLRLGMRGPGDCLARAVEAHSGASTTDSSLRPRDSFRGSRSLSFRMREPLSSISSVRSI

[6] = inhibitors of SNCA 5'UTR-driven translation, confirmation, luminescence, H4 neuroglioblastoma cells, dose confirmation (AID 2454); assay type: functional, cell-based;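 further: H4 neuroglioblastoma cells carrying an alpha-synuclein 5'UTR luciferase reporter; potency for inhibition of the luciferase signal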
[7] = target: T3, Replicative DNA helicase DnaB (Mycobacterium tuberculosis, UniProt P9WMR3); assay: DnaB Intein secondary assay Measured in Biochemical System Using Plate Reader - 2047-04_Inhibitor_Dose_DryPowder_Activity. [Related pubchem assays (depositor defined):AID2223]
T3 sequence (P9WMR3 whole entry): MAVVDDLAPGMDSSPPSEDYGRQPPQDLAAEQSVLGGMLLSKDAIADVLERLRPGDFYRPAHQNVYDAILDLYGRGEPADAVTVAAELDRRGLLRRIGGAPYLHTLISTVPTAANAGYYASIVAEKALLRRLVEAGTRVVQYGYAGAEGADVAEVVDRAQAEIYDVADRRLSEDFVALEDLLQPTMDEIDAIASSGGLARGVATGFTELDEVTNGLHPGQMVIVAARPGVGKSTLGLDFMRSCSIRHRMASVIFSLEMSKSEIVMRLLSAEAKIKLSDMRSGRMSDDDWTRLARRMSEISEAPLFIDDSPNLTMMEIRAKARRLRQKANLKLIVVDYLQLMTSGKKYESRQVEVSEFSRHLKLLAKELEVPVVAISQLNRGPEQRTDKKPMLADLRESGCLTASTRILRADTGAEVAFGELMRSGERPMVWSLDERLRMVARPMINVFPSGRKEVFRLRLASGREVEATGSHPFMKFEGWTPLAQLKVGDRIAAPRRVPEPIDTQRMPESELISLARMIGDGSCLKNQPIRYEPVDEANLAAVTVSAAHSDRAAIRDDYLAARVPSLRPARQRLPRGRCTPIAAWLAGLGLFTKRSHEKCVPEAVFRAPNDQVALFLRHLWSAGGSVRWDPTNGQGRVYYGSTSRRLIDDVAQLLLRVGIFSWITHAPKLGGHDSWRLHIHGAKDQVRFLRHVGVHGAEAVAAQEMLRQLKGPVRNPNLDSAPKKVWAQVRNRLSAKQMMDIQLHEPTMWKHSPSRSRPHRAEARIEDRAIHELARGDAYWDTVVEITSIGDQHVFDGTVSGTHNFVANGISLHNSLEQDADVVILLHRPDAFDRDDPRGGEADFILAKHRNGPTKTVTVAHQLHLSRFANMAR

ORF 73 = ORF 73 (Human herpesvirus 8, UniProt O40947); assay: inhibitors of C-LANA binding to LBS DNA, dose response, biochemical, fluorescence polarization, cherry-picked samples (AID 504725); set-up: species or system Human gammaherpesvirus 8;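 further: fluorescence polarization of a labeled DNA duplex reporting LANA DNA binding; potency is for inhibitors that block LANA binding to the DNA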
[8] = HeLa cell cytotoxicity, dose response, cytotoxicity control for MgcRacGAP inhibitor project (AID 624300); assay type: functional
Caspase-9 = Caspase-9 (Homo sapiens, UniProt P55211); assay: caspase-9 enzyme inhibition, dose response, selectivity assay for caspase-6 inhibitor project, biochemical, fluorescence, plate reader, cherry-picked samples (AID 743293)
Caspase-9, sequence (P55211 1-315 limits assumed): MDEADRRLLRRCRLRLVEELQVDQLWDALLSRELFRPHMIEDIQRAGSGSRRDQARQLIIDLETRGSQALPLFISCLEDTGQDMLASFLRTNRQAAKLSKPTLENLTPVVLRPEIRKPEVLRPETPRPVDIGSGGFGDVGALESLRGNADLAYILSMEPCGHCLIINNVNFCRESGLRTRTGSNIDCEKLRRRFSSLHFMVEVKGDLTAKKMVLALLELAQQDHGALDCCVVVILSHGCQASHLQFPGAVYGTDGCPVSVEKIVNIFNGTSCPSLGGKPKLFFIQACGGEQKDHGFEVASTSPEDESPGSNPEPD
Caspase-9, sequence (P55211 331-416 limits assumed): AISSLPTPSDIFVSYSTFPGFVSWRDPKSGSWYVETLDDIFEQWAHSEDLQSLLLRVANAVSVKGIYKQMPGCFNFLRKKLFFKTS

ORF 73, sequence (O40947 whole entry): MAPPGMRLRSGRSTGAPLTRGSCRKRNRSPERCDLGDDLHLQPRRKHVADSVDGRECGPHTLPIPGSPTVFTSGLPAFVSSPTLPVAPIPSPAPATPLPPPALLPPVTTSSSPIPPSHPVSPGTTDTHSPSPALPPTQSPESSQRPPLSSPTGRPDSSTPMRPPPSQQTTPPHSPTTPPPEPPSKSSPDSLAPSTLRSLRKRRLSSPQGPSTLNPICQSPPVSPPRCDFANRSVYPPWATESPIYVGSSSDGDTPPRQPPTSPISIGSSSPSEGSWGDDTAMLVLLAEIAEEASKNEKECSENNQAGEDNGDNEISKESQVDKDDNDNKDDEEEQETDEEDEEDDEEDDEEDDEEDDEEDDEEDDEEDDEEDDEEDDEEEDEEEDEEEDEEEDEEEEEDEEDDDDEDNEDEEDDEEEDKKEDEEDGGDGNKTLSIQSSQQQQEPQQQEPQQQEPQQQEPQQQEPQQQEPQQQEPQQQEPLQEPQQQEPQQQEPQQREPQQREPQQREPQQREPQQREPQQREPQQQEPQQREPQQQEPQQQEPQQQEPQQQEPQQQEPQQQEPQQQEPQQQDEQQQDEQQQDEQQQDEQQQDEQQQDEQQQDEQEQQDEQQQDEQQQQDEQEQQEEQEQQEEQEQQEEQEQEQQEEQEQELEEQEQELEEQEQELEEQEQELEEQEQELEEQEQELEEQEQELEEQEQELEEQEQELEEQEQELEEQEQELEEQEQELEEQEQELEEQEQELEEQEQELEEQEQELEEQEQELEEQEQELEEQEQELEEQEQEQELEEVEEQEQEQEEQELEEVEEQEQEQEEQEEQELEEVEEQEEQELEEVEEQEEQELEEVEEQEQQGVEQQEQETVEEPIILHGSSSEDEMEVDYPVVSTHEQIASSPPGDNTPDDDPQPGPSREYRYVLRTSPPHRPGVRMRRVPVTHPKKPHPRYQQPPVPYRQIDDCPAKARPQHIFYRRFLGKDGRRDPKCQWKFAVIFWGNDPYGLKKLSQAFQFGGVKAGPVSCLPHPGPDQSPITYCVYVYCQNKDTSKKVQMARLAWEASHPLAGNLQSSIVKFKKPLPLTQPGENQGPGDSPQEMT

For `CCCCCCCCCCOC(=O)C[n+]1c(COc2ccccc2OC)n(C)c2ccccc21`, the IC50 [1] was 54400 nM (inactive) and the IC50 [2] was 14300 nM (active).
With `Cc1oc2c(c1C(=O)NCc1cccnc1)C(=O)c1ccccc1C2=O` the EC50 [3] was < 100 nM (active), the CC50 [4] was 295 nM (active) and the IC50 [5] was 581 nM (active). For the same compound, the EC50 [6] was 145 nM (active) and the AC50 [7] was 1150 nM (active).
With `O=c1ccc2c(-c3ccccc3S(=O)(=O)O)c3ccc(O)c(O)c3oc-2c1O` [PYROGALLOL RED] the AC50 (ORF 73) was 526 nM (active), the CC50 [8] was 100000 nM (active) and the AC50 (Caspase-9) was > 70000 nM (inactive).
